Measured values from patent publication US12077503B2, “Substituted cyclic amides and their use as herbicides” (FMC CORPORATION, priority 2015, dated 2024).

Legend:
Type in all cases: in vivo
Kochia (Kochia scoparia) [1] = assay: Test A preemergence; details: Bassia scoparia, pre-emergence, 240 h, 0 to 100 scale where 0 is no effect and 100 is complete control, read-out: Kochia plant response rating
Method in brief: (§1)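 Seeded soil received test chemicals as a preemergence directed spray, and seedlings at one to two leaves, 2–10 cm tall, received them postemergence, in a non-phytotoxic, surfactant-containing solvent mixture. Pots were held in a greenhouse for approximately 10 d, then rated for injury from 0, no effect, to 100, complete control.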

[2] = system: barnyardgrass (Echinochloa crus-galli); assay: Test A preemergence; details: Echinochloa crus-galli, pre-emergence, 240 h, 0 to 100 scale where 0 is no effect and 100 is complete control, read-out: Barnyardgrass plant response rating
Method in brief: as §1

[3] = system: giant foxtail (Setaria faberii); assay: Test A preemergence; details: Setaria faberi, pre-emergence, 240 h, 0 to 100 scale where 0 is no effect and 100 is complete control, read-out: Foxtail, Giant plant response rating
Method in brief: as §1

[4] = system: pigweed (Amaranthus retroflexus); assay: Test A preemergence; details: Amaranthus retroflexus, pre-emergence, 240 h, 0 to 100 scale where 0 is no effect and 100 is complete control, read-out: Pigweed plant response rating
[5] = system: ragweed (common ragweed, Ambrosia elatior); assay: Test A preemergence; details: Ambrosia artemisiifolia, pre-emergence, 240 h, 0 to 100 scale where 0 is no effect and 100 is complete control, read-out: Ragweed plant response rating
Method in brief: as §1

[6] = system: ryegrass, Italian (Italian ryegrass, Lolium multiflorum); assay: Test A preemergence; details: Lolium multiflorum, pre-emergence, 240 h, 0 to 100 scale where 0 is no effect and 100 is complete control, read-out: Ryegrass, Italian plant response rating
Method in brief: as §1

[7] = system: Galium (catchweed bedstraw, Galium aparine); assay: Test A postemergence; details: Galium, post-emergence, 240 h
Method in brief: as §1

Kochia (Kochia scoparia) [8] = assay: Test A postemergence; details: Bassia scoparia, post-emergence, 240 h
Method in brief: as §1

[9] = system: barnyardgrass (Echinochloa crus-galli); assay: Test A postemergence; details: Echinochloa crus-galli, post-emergence, 240 h
Method in brief: as §1

[10] = system: blackgrass (Alopecurus myosuroides); assay: Test A postemergence; details: Alopecurus myosuroides, post-emergence, 240 h
Method in brief: as §1

corn (Zea mays) = assay: Test A postemergence; details: Zea mays, post-emergence, 240 h
Method in brief: as §1

[11] = system: giant foxtail (Setaria faberii); assay: Test A postemergence; details: Setaria faberi, post-emergence, 240 h
Method in brief: as §1

[12] = system: pigweed (Amaranthus retroflexus); assay: Test A postemergence; details: Amaranthus retroflexus, post-emergence, 240 h
Method in brief: as §1

[13] = system: ragweed (common ragweed, Ambrosia elatior); assay: Test A postemergence; details: Ambrosia artemisiifolia, post-emergence, 240 h
Method in brief: as §1

[14] = system: ryegrass, Italian (Italian ryegrass, Lolium multiflorum); assay: Test A postemergence; details: Lolium multiflorum, post-emergence, 240 h
Method in brief: as §1

[15] = system: wheat (Triticum aestivum); assay: Test A postemergence; details: Triticum aestivum, post-emergence, 240 h
Method in brief: as §1

[16] = system: barnyardgrass (Echinochloa crus-galli); assay: Test B flooded paddy test; details: Echinochloa crus-galli, 250 g ai/ha, Flood; 0 to 100 scale where 0 is no effect and 100 is complete control; read-out: Barnyardgrass plant response rating
Method in brief: (§2)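 2-leaf plants; pots flooded 3 cm over soil; cpd added to paddy water; depth held; greenhouse 13–15 d; visual rating vs controls, 0 = no effect, 100 = complete control.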

[17] = system: ducksalad (Heteranthera limosa); assay: Test B flooded paddy test; details: Heteranthera limosa, 250 g ai/ha, Flood; 0 to 100 scale where 0 is no effect and 100 is complete control; read-out: Ducksalad plant response rating
Method in brief: as §2

rice (Oryra sativa) = assay: Test B flooded paddy test; details: Oryza sativa, 250 g ai/ha, Flood; 0 to 100 scale where 0 is no effect and 100 is complete control; read-out: Rice plant response rating
Method in brief: as §2

[18] = system: sedge, umbrella (small-flower umbrella sedge, Cyperus difformis); assay: Test B flooded paddy test; details: Cyperus difformis, 250 g ai/ha, Flood; 0 to 100 scale where 0 is no effect and 100 is complete control; read-out: Sedge, Umbrella plant response rating
Method in brief: as §2

[19] = 125 g ai/ha, preemergence, approx. 10 d

## CN1C[C@H](c2ccc3ncccc3c2)[C@@H](C(=O)Nc2cccc(F)c2F)C1=O [Compound 1167]
Kochia (Kochia scoparia) [1]; 31 g ai/ha, Preemergence
  pest or weed control at 31 g/ha: 0%
Kochia (Kochia scoparia) [1]; [19]
  pest or weed control at 125 g/ha: 0%
[2]; 31 g ai/ha, Preemergence
  pest or weed control at 31 g/ha: 0%
[2]; [19]
  pest or weed control at 125 g/ha: 0%
[3]; 31 g ai/ha, Preemergence
  pest or weed control at 31 g/ha: 0%
[3]; [19]
  pest or weed control at 125 g/ha: 50%
[4]; 31 g ai/ha, Preemergence
  pest or weed control at 31 g/ha: 0%
[4]; [19]
  pest or weed control at 125 g/ha: 0%
[5]; 31 g ai/ha, Preemergence
  pest or weed control at 31 g/ha: 0%
[5]; [19]
  pest or weed control at 125 g/ha: 0%
[6]; 31 g ai/ha, Preemergence
  pest or weed control at 31 g/ha: 0%
[6]; [19]
  pest or weed control at 125 g/ha: 0%
[7]; 125 g ai/ha, postemergence, visual injury vs untreated controls after approx. 10 d, 0 = no effect, 100 = complete control, read-out: Galium plant response rating (0 to 100 scale)
  pest or weed control at 125 g/ha: 20%
[7]; Postemergence, 31 g ai/ha, visual injury after approx. 10 d, 0 to 100 scale, 0 no effect, 100 complete control, read-out: Plant response rating, Galium
  pest or weed control at 31 g/ha: 0%
Kochia (Kochia scoparia) [8]; 125 g ai/ha, postemergence, visual injury vs untreated controls after approx. 10 d, 0 = no effect, 100 = complete control, read-out: Kochia plant response rating (0 to 100 scale)
  pest or weed control at 125 g/ha: 0%
Kochia (Kochia scoparia) [8]; Postemergence, 31 g ai/ha, visual injury after approx. 10 d, 0 to 100 scale, 0 no effect, 100 complete control, read-out: Plant response rating, Kochia
  pest or weed control at 31 g/ha: 0%
[9]; 125 g ai/ha, postemergence, visual injury vs untreated controls after approx. 10 d, 0 = no effect, 100 = complete control, read-out: Barnyardgrass plant response rating (0 to 100 scale)
  pest or weed control at 125 g/ha: 50%
[9]; Postemergence, 31 g ai/ha, visual injury after approx. 10 d, 0 to 100 scale, 0 no effect, 100 complete control, read-out: Plant response rating, Barnyardgrass
  pest or weed control at 31 g/ha: 0%
[10]; 125 g ai/ha, postemergence, visual injury vs untreated controls after approx. 10 d, 0 = no effect, 100 = complete control, read-out: Blackgrass plant response rating (0 to 100 scale)
  pest or weed control at 125 g/ha: 0%
[10]; Postemergence, 31 g ai/ha, visual injury after approx. 10 d, 0 to 100 scale, 0 no effect, 100 complete control, read-out: Plant response rating, Blackgrass
  pest or weed control at 31 g/ha: 0%
Corn (Zea mays); 125 g ai/ha, postemergence, visual injury vs untreated controls after approx. 10 d, 0 = no effect, 100 = complete control, read-out: Corn plant response rating (0 to 100 scale)
  plant injury at 125 g/ha: 0%
Corn (Zea mays); Postemergence, 31 g ai/ha, visual injury after approx. 10 d, 0 to 100 scale, 0 no effect, 100 complete control
  Corn plant response rating (crop injury, 0 = no effect, 100 = complete kill) at 31 g/ha: 0%
[11]; 125 g ai/ha, postemergence, visual injury vs untreated controls after approx. 10 d, 0 = no effect, 100 = complete control, read-out: Foxtail, Giant plant response rating (0 to 100 scale)
  pest or weed control at 125 g/ha: 30%
[11]; Postemergence, 31 g ai/ha, visual injury after approx. 10 d, 0 to 100 scale, 0 no effect, 100 complete control, read-out: Plant response rating, Foxtail, Giant
  pest or weed control at 31 g/ha: 0%
[12]; 125 g ai/ha, postemergence, visual injury vs untreated controls after approx. 10 d, 0 = no effect, 100 = complete control, read-out: Pigweed plant response rating (0 to 100 scale)
  pest or weed control at 125 g/ha: 0%
[12]; Postemergence, 31 g ai/ha, visual injury after approx. 10 d, 0 to 100 scale, 0 no effect, 100 complete control, read-out: Plant response rating, Pigweed
  pest or weed control at 31 g/ha: 0%
[13]; 125 g ai/ha, postemergence, visual injury vs untreated controls after approx. 10 d, 0 = no effect, 100 = complete control, read-out: Ragweed plant response rating (0 to 100 scale)
  pest or weed control at 125 g/ha: 0%
[13]; Postemergence, 31 g ai/ha, visual injury after approx. 10 d, 0 to 100 scale, 0 no effect, 100 complete control, read-out: Plant response rating, Ragweed
  pest or weed control at 31 g/ha: 0%
[14]; 125 g ai/ha, postemergence, visual injury vs untreated controls after approx. 10 d, 0 = no effect, 100 = complete control, read-out: Ryegrass, Italian plant response rating (0 to 100 scale)
  pest or weed control at 125 g/ha: 0%
[14]; Postemergence, 31 g ai/ha, visual injury after approx. 10 d, 0 to 100 scale, 0 no effect, 100 complete control, read-out: Plant response rating, Ryegrass, Italian
  pest or weed control at 31 g/ha: 0%
[15]; 125 g ai/ha, postemergence, visual injury vs untreated controls after approx. 10 d, 0 = no effect, 100 = complete control, read-out: Wheat plant response rating (0 to 100 scale)
  plant injury at 125 g/ha: 50%
[15]; Postemergence, 31 g ai/ha, visual injury after approx. 10 d, 0 to 100 scale, 0 no effect, 100 complete control, read-out: Plant response rating, Wheat
  plant injury at 31 g/ha: 0%
[16]
  pest or weed control at 250 g/ha: 0%
[17]
  pest or weed control at 250 g/ha: 0%
Rice (Oryra sativa)
  pest or weed control at 250 g/ha: 0%
[18]
  pest or weed control at 250 g/ha: 0%
